Literature values, collected in paper PMC6530635, “A Novel Single-Site Mutation in the Catalytic Domain of Protoporphyrinogen Oxidase IX (PPO) Confers Resistance to PPO-Inhibiting Herbicides” (Frontiers in Plant Science, 2019).

Test system: Amaranthus palmeri MIS-D population
Parameters: method as in Salas-Perez et al., 2017
Details: MIS-D field population; 1X dose; ref Salas-Perez et al., 2017; cited from earlier work

Cc1nn(-c2cc(CC(Cl)C(=O)O)c(Cl)cc2F)c(=O)n1C(F)F (stereo not shown) [Carfentrazone]
Frequency of resistant plants: 20%
